Measurements taken from patent publication US20220144775A1, “HYDRAZIDE COMPOUND AND KINASE INHIBITOR” (NISSAN CHEMICAL CORPORATION, priority 2019, published 2022).

Test system: YAP
Assay: YAP phosphorylation inhibitory action in SKOV3 (HTRF)
Format: cell-based, human
Conditions: 10 μM, 1 hr, non-treatment 100%
Method: Human ovarian cancer cell line SKOV3 (manufactured by DS Pharma Biomedical Co., Ltd.) was precultured using a 15% FBS-containing McCoy's 5a medium (manufactured by Sigma-Aldrich) (single layer culture). The above-mentioned cells in the logarithmic growth phase were washed with PBS. A 0.25% (w/v) trypsin-1 mmol/L ethylenediaminetetraacetic acid (EDTA) solution (manufactured by FUJIFILM Wako Pure Chemical Corporation) was added and the adherent cells were incubated at 37° C. for 3 min and detached. The above-mentioned medium was added, and the cells were centrifuged and resuspended in the same medium.
According to the method of patent document 1 (WO 2014/017513), a composition of 10% FBS-containing DMEM medium (Phenol-red free, manufactured by FUJIFILM Wako Pure Chemical Corporation) containing 0.015% (w/v) deacylated gellan gum (KELCOGEL CG-LA, manufactured by SANSHO Co., Ltd.) was prepared using FCeM-series Preparation Kit (manufactured by FUJIFILM Wako Pure Chemical Corporation). Then, various cells prepared above were suspended in the above-mentioned medium composition (3D culture conditions) added with deacylated gellan gum or a medium without the addition (2D culture conditions), and seeded on a 50 μL/well (manufactured by Corning Incorporated, a 96 well flat bottom plate, #3585, 2D culture conditions) or 25 μL/well (manufactured by Corning Incorporated, 96 well low adhesion flat bottom plate, #3474) at 100000 cells/well. The plate was allowed to stand at 37° C. in a 5% CO2 incubator, and the compound of the present invention diluted with the medium at 2 or 6 times the final concentration, DMSO, or the medium alone was added to the plate 3 hr after the seeding at 50 μL/well (2D culture conditions) or 5 μL/well (3D culture conditions) to make the final concentration of each compound 10 μM. After culture at 37° C. in a 5% CO2 incubator for 1 hr, the supernatant was aspirated, supplemented Lysis buffer (1-fold concentration, manufactured by Cisbio, YAP-total kit or YAP phospho-S27 kit) (50 μL) was added under 2D culture conditions, and supplemented Lysys buffer (4-fold concentration) (10 μL) was added to the culture supernatant under 3D conditions, and the mixture was stirred by a plate shaker for 30 min. Thereafter, the plate was centrifuged, 16 μL of the supernatant was transferred to a 384-well white plate (Corning, #4512), and each antibody solution (pYAP d2 antibody or Total-YAP d2 antibody, and pYAP Cryptate antibody or Total-YAP Cryptate antibody) included in the kit was added at 4 μL/well in total, and the mixture was allowed to stand at room temperature overnight. As a blank control, pYAP Cryptate antibody or Total-YAP Cryptate antibody alone was added to cells free of stimulation with compound and the mixture was treated in the same manner. The next day, the wavelengths at 665 nm and 615′ nm were measured in the HTRF mode of EnVision (manufactured by PerkinElmer).
The obtained signal was calculated as follows. Ratio=signal (665 nm)/signal (615 nm)×10000, ΔR=Signal(Ratio)−Background fluorescence, and the relative phosphorylated YAP amount or total YAP amount for each compound when ΔR of the compound non-addition group (non-treatment) is 100% is shown in Tables 7 and 8 (2D culture), and Tables 9 and 10 (3D culture). From the results, it was shown that the compound of the present zo invention has a YAP phosphorylation inhibitory action under both 2D and 3D culture conditions.

| Structure (SMILES) | phosphorylated YAP amount (%) (2D culture conditions) | total YAP amount (%) (2D culture conditions) | phosphorylated YAP amount (%) (3D culture conditions) | total YAP amount (%) (3D culture conditions) |
| --- | --- | --- | --- | --- |
| CC/C(=N\NC(=O)C(C)Nc1cccnc1)c1ccc(O)c(C)c1O (centres unmarked) [A-004, (E)-N′-(1-(2,4-dihydroxy-3-methylphenyl)propylidene)-2-(pyridin-3-ylamino)propanehydrazide] | 19% | 87% | 33% | 105% |
| CC/C(=N\NC(=O)C(C)Nc1cncc(F)c1)c1ccc(O)c(C)c1O (centres unmarked) [A-007] | 16% | 91% | 21% | 96% |
